ChEMBL document CHEMBL1201862, “PubChem BioAssay data set” (2004)
The source made the active and inactive calls.

What was measured:
[1] = inhibitors of SNCA 5'UTR-driven reporter translation, confirmation, H4 neuroglioma cells, luminescence (AID 1988); assay type: functional, cell-based
[2] = Luminescence Cell-Based Dose Retest to Confirm Inhibitors of Cancer Stem Cells. [Related pubchem assays (depositor defined):AID2717, AID2721]; assay type: functional; settings: Homo sapiens
INS1 = experiment: beta cell apoptosis inhibitors, cytokine rescue, dose response, luminescence, retest (AID 449756); assay type: functional, cell-based; settings: Rattus norvegicus;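 also: cell death triggered by IL-1 beta plus TNF-alpha plus IFN-gamma mixture; protective hits raise ATP signal compared with cytokine alone wells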
Exodeoxyribonuclease V = molecular target: T1, Exodeoxyribonuclease V (Escherichia coli (strain K12), UniProt P04993+P07648+P08394); experiment: E. coli RecBCD inhibitors, dose response, counter-screen for AddAB inhibitor project, absorbance, V66 E. coli, mutant T4 phage (AID 492957); assay type: functional, cell-based, Escherichia coli str. K-12 substr. MG1655
T1 sequence (P04993 whole entry): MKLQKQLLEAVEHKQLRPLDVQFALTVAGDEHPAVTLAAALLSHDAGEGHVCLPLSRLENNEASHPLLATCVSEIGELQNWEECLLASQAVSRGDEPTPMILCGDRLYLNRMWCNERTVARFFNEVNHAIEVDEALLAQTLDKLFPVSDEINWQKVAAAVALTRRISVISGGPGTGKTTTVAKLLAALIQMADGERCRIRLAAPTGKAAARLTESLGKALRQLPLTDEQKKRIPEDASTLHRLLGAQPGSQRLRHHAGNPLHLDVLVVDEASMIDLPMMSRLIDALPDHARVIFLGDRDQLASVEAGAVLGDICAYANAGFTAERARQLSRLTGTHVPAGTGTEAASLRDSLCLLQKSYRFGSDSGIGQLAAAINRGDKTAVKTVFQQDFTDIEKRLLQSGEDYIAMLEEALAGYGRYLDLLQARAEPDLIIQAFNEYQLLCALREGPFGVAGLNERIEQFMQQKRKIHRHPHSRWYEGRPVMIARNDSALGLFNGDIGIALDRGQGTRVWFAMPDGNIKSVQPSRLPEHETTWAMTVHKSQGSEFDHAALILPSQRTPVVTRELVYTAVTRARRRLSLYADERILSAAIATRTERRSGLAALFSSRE
T1 sequence (P07648 whole entry): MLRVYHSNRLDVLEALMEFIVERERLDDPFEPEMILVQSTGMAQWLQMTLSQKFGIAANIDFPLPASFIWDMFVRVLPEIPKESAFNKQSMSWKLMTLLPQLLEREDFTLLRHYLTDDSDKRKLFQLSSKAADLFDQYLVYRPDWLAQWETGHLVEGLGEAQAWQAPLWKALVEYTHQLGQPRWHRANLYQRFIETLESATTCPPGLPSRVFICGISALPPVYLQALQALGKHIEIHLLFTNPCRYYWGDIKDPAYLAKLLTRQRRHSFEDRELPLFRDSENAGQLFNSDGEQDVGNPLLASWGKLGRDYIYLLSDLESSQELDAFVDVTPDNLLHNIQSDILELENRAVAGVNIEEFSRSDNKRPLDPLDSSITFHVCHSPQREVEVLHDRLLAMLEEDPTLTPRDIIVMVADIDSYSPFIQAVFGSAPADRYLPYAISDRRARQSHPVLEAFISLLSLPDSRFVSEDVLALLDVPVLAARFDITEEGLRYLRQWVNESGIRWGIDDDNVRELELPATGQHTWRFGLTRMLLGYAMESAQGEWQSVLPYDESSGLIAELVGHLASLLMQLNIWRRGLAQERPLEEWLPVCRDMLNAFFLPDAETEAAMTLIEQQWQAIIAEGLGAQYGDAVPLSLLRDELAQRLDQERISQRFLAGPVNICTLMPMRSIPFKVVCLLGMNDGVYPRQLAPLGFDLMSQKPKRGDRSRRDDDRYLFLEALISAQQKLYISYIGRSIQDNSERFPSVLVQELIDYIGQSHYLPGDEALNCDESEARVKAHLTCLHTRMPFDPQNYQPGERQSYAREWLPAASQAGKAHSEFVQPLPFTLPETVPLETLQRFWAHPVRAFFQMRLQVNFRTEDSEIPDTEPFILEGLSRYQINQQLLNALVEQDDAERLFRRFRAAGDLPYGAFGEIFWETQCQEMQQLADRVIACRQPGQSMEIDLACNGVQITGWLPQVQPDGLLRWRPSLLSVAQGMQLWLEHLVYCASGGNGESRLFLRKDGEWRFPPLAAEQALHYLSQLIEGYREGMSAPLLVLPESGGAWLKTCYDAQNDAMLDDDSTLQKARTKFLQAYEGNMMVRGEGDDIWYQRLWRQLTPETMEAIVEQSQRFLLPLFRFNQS
T1 sequence (P08394 whole entry): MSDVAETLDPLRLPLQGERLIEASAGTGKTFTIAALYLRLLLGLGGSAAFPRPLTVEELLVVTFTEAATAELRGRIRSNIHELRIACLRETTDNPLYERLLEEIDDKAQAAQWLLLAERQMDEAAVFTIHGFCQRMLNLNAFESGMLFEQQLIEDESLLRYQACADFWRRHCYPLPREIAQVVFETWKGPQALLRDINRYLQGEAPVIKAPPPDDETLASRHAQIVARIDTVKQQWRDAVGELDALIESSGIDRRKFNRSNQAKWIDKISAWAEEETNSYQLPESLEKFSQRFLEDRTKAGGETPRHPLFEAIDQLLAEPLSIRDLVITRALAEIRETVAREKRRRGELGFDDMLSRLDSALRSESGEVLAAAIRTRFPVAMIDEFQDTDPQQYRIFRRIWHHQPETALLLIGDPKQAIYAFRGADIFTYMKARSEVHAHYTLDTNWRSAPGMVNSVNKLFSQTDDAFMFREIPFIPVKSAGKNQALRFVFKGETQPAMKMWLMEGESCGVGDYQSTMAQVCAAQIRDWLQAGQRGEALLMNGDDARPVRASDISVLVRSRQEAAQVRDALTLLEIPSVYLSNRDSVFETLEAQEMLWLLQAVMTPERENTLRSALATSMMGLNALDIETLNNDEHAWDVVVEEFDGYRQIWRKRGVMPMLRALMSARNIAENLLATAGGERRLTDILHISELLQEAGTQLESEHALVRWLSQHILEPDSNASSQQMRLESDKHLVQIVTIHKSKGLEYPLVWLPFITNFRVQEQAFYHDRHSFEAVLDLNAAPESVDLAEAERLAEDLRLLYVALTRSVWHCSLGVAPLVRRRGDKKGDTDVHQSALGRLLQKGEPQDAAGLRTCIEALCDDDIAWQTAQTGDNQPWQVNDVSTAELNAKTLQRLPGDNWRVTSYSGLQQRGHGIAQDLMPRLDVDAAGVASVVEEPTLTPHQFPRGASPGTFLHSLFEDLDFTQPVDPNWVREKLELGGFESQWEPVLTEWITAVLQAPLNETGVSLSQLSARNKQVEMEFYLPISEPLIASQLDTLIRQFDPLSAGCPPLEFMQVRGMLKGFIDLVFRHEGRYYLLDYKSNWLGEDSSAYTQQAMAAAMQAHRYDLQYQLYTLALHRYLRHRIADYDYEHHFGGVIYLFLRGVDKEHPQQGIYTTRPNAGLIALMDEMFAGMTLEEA

[3] = inhibitors of firefly luciferase expression or activity, dose response, H4 neuroglioma cells, luminescence (AID 1990); assay type: functional, cell-based
[4] = C. albicans growth with fluconazole, confirmation, fluorescence, retest (AID 2467); assay type: functional, cell-based
[5] = Counterscreen for AddAB inhibitors: absorbance-based bacterial cell-based high throughput dose response assay for inhibitors of bacterial viability. [Related pubchem assays (depositor defined):AID435030, AID449728, AID449731, AID488942, AID488955, AID488956]; assay type: functional
[6] = Luminescence Cell-Based Dose Response HTS to Identify Inhibitors of 5'UTR Stem-Loop Driven Prion Protein mRNA Translation in H4 Neuroglioblastoma Cells. [Related pubchem assays: 1827 (Project Summary), 1813 (Primary HTS)]; assay type: functional
[7] = NIH-3T3 fibroblast cytotoxicity, dose response, cytotoxicity control, cell-based, fluorescence, Alamar Blue, secondary assay (AID 2327); assay type: functional;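 also: NIH-3T3 mouse fibroblasts cultured with fluconazole at 8 µg/mL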
[8] = human group III sPLA2 inhibitors, dose response, biochemical, QFRET, IC50 (AID 743457);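 also: green fluorescence rise as the enzyme cleaves BODIPY PC-A2 in liposomes; potency for inhibition of the enzyme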
[9] = MITF: Counter assay: A375 proliferation Measured in Cell-Based System Using Plate Reader - 2084-03_Inhibitor_Dose_DryPowder_Activity_Set8.; assay type: functional; settings: A-375
[10] = MITF Orthogonal Assay: SK-MEL-5 CTG Assay Measured in Cell-Based System Using Plate Reader - 2084-02_Inhibitor_Dose_DryPowder_Activity_Set7.; assay type: functional
[11] = Shn3 3'UTR reporter inhibitors, dose response, cell-based, Clone20 osteoblasts, firefly luciferase, cherry-picked (AID 624132); assay type: functional;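 also: firefly luciferase luminescence from reporter carrying the Shn3 3'UTR in osteoblasts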
[12] = reduction of Shn3 3'UTR firefly luciferase signal, dose response, Schnurri-3 inhibitor project, cell-based, Clone20 osteoblasts, cherry-pick, set 2 (AID 720490); assay type: functional;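 also: actives lower the luminescence signal as inhibitors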
[13] = inhibitors of control Renilla luciferase reporter, dose response, counter-screen for Shn3 3'UTR targeting project, Clone20-Shn3RL cells, dual-Glo, cherry-pick, set 2 (AID 720724); assay type: functional, cell-based; settings: Dual-Go Shn3RL
[14] = HepG2 cell cytotoxicity, dose response, cytotoxicity control for Shn3 inhibitor project, CellTiter-Glo, cherry-picked (AID 624134); assay type: functional, cell-based
[15] = control 3'UTR Renilla luciferase suppression, dose response, counter-screen for Shn3 inhibitor project, cell-based, Clone20-Shn3RL, cherry-picked (AID 624133); assay type: functional
Protein Wnt-3a = Protein Wnt-3a (Mus musculus, UniProt P27467); experiment: Wnt3a-driven reporter signaling inhibition, dose response, selectivity assay for Gli-SUFU antagonist project, Wnt-LIGHT cells, luminescence (AID 651570); assay type: functional; settings: read-out: IC50_Mean;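 also: Wnt-LIGHT reporter cells stimulated with conditioned medium from Wnt3a-producing cells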
Chain of Protein Wnt-3a (P27467 whole entry): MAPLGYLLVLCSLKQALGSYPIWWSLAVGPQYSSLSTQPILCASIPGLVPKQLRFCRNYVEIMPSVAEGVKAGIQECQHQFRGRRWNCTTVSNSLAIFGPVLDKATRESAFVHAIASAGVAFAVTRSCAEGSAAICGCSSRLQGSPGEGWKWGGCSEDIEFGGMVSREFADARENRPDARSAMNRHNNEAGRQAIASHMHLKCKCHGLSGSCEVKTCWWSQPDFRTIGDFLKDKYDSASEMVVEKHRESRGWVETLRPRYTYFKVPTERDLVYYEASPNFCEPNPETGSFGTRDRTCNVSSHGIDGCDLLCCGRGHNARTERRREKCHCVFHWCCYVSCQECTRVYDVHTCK

SMILES: Cc1onc(-c2c(Cl)cccc2Cl)c1C(=O)NN=C(N)COc1ccc(Cl)cc1
- EC50 [1]: > 120 µM (not active)
- AC50 [2]: 3.07 µM (active)
- AC50 (INS1): 3.71 µM (active)
- IC50 (Exodeoxyribonuclease V): > 119 µM (inactive)
- EC50 [3]: > 120 µM (not active)
- EC50 [4]: 3.09 µM (active)
- IC50 [5]: > 119 µM (inactive)
- EC50 [6]: 12 µM (active)
- EC50 [7]: > 150 µM (inactive)
- IC50 [8]: > 122 µM (inactive)

SMILES: Cc1ccc(NC2=CC(=O)c3ccccc3C2=O)cc1C
- AC50 [9]: > 70 µM (inactive)
- AC50 [10]: 0.904 µM (active)

SMILES: CC(Sc1nc2ccccc2c(=O)n1C)C(=O)N(C)C1CCCCC1 (stereo not drawn)
- AC50 [11]: 2.27 µM (active)
- AC50 [12]: 2.03 µM (active)
- AC50 [13]: 49.9 µM (active)
- AC50 [14]: 38.2 µM (active)
- AC50 [15]: 13.7 µM (active)
- IC50 (Protein Wnt-3a): 1.92 µM (active)
